Literature values as cited in US20050101548A1, “Antimicrobial derivatives” (priority 2003, published 2005).

Tests used:
[1] = system: macrolide-sensitive and resistant bacteria
[2] = system: S. pneumoniae
[3] = system: Gram-negative bacteria

Compound	antibacterial activity against S. pneumoniae [2]	other results
C=C1CO[C@@H]2[C@@H](C)/C(=N/C(C)=O)[C@H](C)C[C@@](C)(OC1)[C@H](O[C@@H]1O[C@H](C)C[C@H](N(C)C)[C@H]1O)[C@@H](C)C(=O)[C@@H](C)C(=O)O[C@H](CC)[C@@]2(C)O [EP-1304]	–	activity against some macrolide-sensitive and resistant bacteria in vivo [1]: exhibits activity
CC[C@H]1OC(=O)[C@H](C)C(=O)[C@H](C)[C@@H](O[C@@H]2O[C@H](C)C[C@H](N(C)C)[C@H]2O)[C@@]2(C)C[C@@H](C)/C(=N\C(C)=O)[C@H](C)[C@@H](OCC(=NOCc3ccccc3)CO2)[C@]1(C)O [EP-1562]	possess antibacterial activity	–
CC[C@H]1OC(=O)[C@H](C)C(=O)[C@H](C)[C@@H](O[C@@H]2O[C@H](C)C[C@H](N(C)C)[C@H]2O)[C@@]2(C)C[C@@H](C)/C(=N\C(C)=O)[C@H](C)[C@@H](OCC(=NOCc3ccc(-c4cccnc4)s3)CO2)[C@]1(C)O [EP-12728]	possess antibacterial activity	–
CC[C@H]1OC(=O)[C@H](C)[C@@H](O[C@H]2C[C@@](C)(OC)[C@@H](O)[C@H](C)O2)[C@H](C)[C@@H](O[C@@H]2O[C@H](C)C[C@H](N(C)C)[C@H]2O)[C@](C)(O)C[C@@H](C)C(=O)[C@H](C)[C@@H](O)[C@]1(C)O [erythromycin A]	–	activity against Gram-negative bacteria [3]: only weak activity
